Test results taken from patent publication EP1800684A1, “Novel alkyl phospholipid derivatives and uses thereof” (Zentaris GmbH, priority 2005, dated 2007).
≈ marks a conversion by molar mass, not a printed value.

How the values were obtained:
Format in all cases: cell-based
[1] = test system: Aspergillus fumigatus (ATCC 204305); experiment: Anti-fungal susceptibility test (microdilution), fungus H; conditions: Aspergillus fumigatus, ATCC204305, no visible growth after 72 hours at 35° C, read-out: MIC
Method: (§1) The antifungal activities of the test compounds (compounds of the invention and known prior art compounds) were measured according to standard microdilution methods (Cryptococcus/Aspergillus: Ghannoum et al., Journal of Clinical Microbiology 1992, 30 (11): 2881-2886; Candida: Reference method for broth dilution susceptibility testing of yeast: proposed standard, NCCLS document M27-P, National Committee for Clinical Laboratory Standards 1992, Villanova, Pa).
(§2) A serial dilution series starting from 64 µg/mL test compound per well down to 0.125 µg/mL test compound per well was applied for each test compound on each fungus. The MIC of each compound was defined as the concentration which produces no visible growth after 48 hours (Candida) and 72 hours (Cryptococcus, Aspergillus) of culture at 35° C.
(§3) The following fungi were assessed: • A) Candida albicans (ATCC 10231) • B) Candida albicans (ATCC 90028) • C) Candida albicans (strain TS3, Shrikantha et al., Journal of Bacteriology 2000, 182(6):1580-1591) • D) Candida parapsilosis (ATCC 22019) • E) Cryptocoocus neoformans (ATCC 90112) • F) Cryptocoocus neoformans (strain H99; Ganendren et al., Antimicrobial Agents and Chemotherapy, 2004, 48(5):1561-1569) • G) Cryptocoocus gattii (ATCC 32608) • H) Aspergillus fumigatus (ATCC 204305) • I) Aspergillus fumigatus (strain 322-384)

[2] = test system: Trypanosoma cruzi (Tulahuan-LACZ amstigotes in PEM); experiment: In vitro drug activity assay, protozoon A (amastigotes in murine peritoneal macrophages, CPRG readout); conditions: infected macrophages exposed for 3 days
Method: Murine (CD1) peritoneal macrophages were harvested 24 hours after starch induction and dispensed into 96-well plates at a concentration of 4 x 10^5 mL. After 24 hours, the cells were infected with Trypanosoma cruzi Tulahuan LAC-Z amastigotes (grown and cultured according to Buckner et al., Infection and Immunity 1999, 67(1): 403-409). 24 hours later, the infected cells were exposed to the test compounds (compounds of the invention as well as known prior art compounds) for 3 days and 50 µL of 500 µM CPRG-1% Nonidet P-40 was added to each well. The plates were read after 2 to 5 hours at 570 nm (Buckner et al., Antimicrobial Agents and Chemotherapy 1996, 40(11): 2592-2597). ED50 values were calculated with Msxlfit (IDBS).
The following protozoa were assessed: • A) Trypanosoma cruzi (Tulahuan-LACZ amstigotes in PEM, Lorente SO et al., Antimicrobial agents and chemotherapy 2004, 48(8): 2937-2950; Buckner et al., Infection and Immunity 1999, 67(1): 403-409; Buckner et al., Antimicrobial Agents and Chemotherapy 1996, 40(11): 2592-2597) • B) Trypanosoma brucei rhodesiense (strain STIB900, Lorente SO et al., Antimicrobial agents and chemotherapy 2004, 48(8): 2937-2950; Habtemariam S, BMC Pharmacology 2003, 3:6) • C) Plasmodium falciparum (strain K1, Korsinczky M et al., Antimicrobial agents and chemotherapy 2000, 44(8): 2100-2108; Thaitong S and Beale GH, Trans. R. Soc. Trop. Med. Hyg. 1981, 75: 271-273; Trager W and Jensen JB, Science 1976, 193: 673-675) • D) Plasmodium falciparum (strain 3D7, Mu et al., PLoS Biology 2005, 3(10): e335)

[3] = test system: PC3 (ATCC CRL1435, human prostate carcinoma); experiment: XTT cytotoxicity assay, PC3 cells; conditions: PC-3, 48 h, 2 days of continuous drug exposure
Method: (§4) Human tumor cell lines KB/HeLa (ATCC CCL17, human cervix carcinoma), PC3 (ATCC CRL1435, human prostate carcinoma) and RKOp21 (human colon adenocarcinoma) cells were used in an automated XTT screening assay for the assessment of cytotoxicity.
(§5) The XTT assay quantifies cellular metabolic activity which correlates with cell viability and cell number. Test compounds (selected compounds of the invention and known substances as controls) are dissolved in culture medium at 600µM and added to the tumor cells in 10 different concentrations in a semi-logarithmic fashion starting from 100 µM as highest concentration.
(§6) 48h later cellular metabolic activity of cells treated with test compounds is quantified by measurement of the absorbance at 490nm (conversion of XTT dye) in comparison to untreated control cells (100% viability).
(§7) KB/HeLa and PC3 cells were cultivated in RPMI medium supplemented with 10% heat inactivated fetal calf serum, 2 mM glutamine, 100 U/ml penicillin, and 100 µg/ml streptomycin. RKOp21 cells were grown in DMEM supplemented with 10% heat inactivated fetal calf serum, 2 mM glutamine, 100 U/ml penicillin, and 100 µg/ml streptomycin. All cells were cultured at 37°C in 5% CO2 humidified air.
(§8) On the first day of the experiment cells were harvested from exponential phase cultures by trypsination, counted and plated into 96 well flat-bottom micro titer plates depending on the cell line as listed below:
(§9) After a 24h recovery to allow the cells to resume exponential growth, the test compounds were diluted immediately prior to use and transferred in 25µl volume to the wells.
(§10) Following 2 days of continuous drug exposure 50µl of freshly prepared XTT-PMS solution (2% […] PMS in PBS + 98% 1 mg/ml XTT in RPMI 1640 without phenol red) was added to the wells. To measure the proportion of living cells, the cells were incubated for 3 h with XTT-PMS reagent at 37°C, 5% CO2, humidified atmosphere allowing to form the formazan salt. The amount of soluble formazan salt produced by cellular reduction of XTT is quantified by measuring the absorbance at 490nm using the Biomek® 2000 ELISA plate reader.
(§11) %-inhibition (cytotoxicity) of each test compound was calculated in relation to untreated control cells. Inhibition curves were generated and IC50 values calculated by using GraphPad Prism.

[4] = test system: Candida albicans (strain TS3); experiment: Anti-fungal susceptibility test (microdilution), fungus C; conditions: Candida albicans, no visible growth after 48 hours at 35° C, read-out: MIC
Method: as §1, §2, §3

[5] = test system: Candida albicans (ATCC 90028); experiment: Anti-fungal susceptibility test (microdilution), fungus B; conditions: Candida albicans, ATCC90028, no visible growth after 48 hours at 35° C, read-out: MIC
Method: as §1, §2, §3

[6] = test system: KB/HeLa (ATCC CCL17, human cervix carcinoma); experiment: XTT cytotoxicity assay, KB/HeLa cells; conditions: 48 h, 2 days of continuous drug exposure
Method: as §4, §5, §6, §7, §8, §9, §10, §11

[7] = test system: Cryptocoocus neoformans (ATCC 90112); experiment: Anti-fungal susceptibility test (microdilution), fungus E; conditions: fungus E; no visible growth after 72 hours at 35° C; read-out: MIC
Method: as §1, §2, §3

[8] = test system: Candida albicans (ATCC 10231); experiment: Anti-fungal susceptibility test (microdilution), fungus A; conditions: Candida albicans, ATCC10231, no visible growth after 48 hours at 35° C, read-out: MIC
Method: as §1, §2, §3

[9] = test system: Cryptocoocus gattii (ATCC 32608); experiment: Anti-fungal susceptibility test (microdilution), fungus G; conditions: fungus G; no visible growth after 72 hours at 35° C; read-out: MIC
Method: as §1, §2, §3

CCCCCCCCCCCCCCCCOP(=O)([O-])OCC[N+]1(C)CCCCC1 [Compound 2, Phosphoric acid 2-(1-methyl-piperidin-1-yl)-ethyl ester hexadecyl ester]
MIC [1]: 2 µg/mL (≈ 4.47 µM) | ED50 (µg/mL) [2]: 0,50 µg/mL | IC50 [3]: 19.6 µM | MIC [4]: 1.5 µg/mL (≈ 3.35 µM) | MIC [5]: 1 µg/mL (≈ 2.23 µM) | IC50 [6]: 5.02 µM | MIC [7]: 1.5 µg/mL (≈ 3.35 µM) | MIC [8]: 1 µg/mL (≈ 2.23 µM) | MIC [9]: 0.75 µg/mL (≈ 1.68 µM)
